Assays:
lethal endotoxin shock = experiment: Survival of Swiss Webster mice following lethal endotoxin dose and Tβ4; type: in vivo
Description: Swiss-Webster mice 4-6 weeks of age (20-25g) were housed 6 per cage. The mice were divided into 2 groups: endotoxic mice (endotoxin 60 mg/kg i.p. in acute treatment) and endotoxic mice treated with Tβ4, 5 minutes and 2, 4, 6, 8, 10, 12, 14, 16, 18, 20, 22, 24 hours post administration of the endotoxin. Survival was recorded 2 times a day for 7 days.
Swiss-Webster mice 4-6 weeks of age (20-25g) were divided to the following 4 groups.
1. Mice treated with a lethal dose of endotoxin (60 mg/kg).
2. Mice treated with 60 mg/kg endotoxin followed by an injection of 100 μg Tβ4 (5 minutes post administration of endotoxin).
3. Mice treated with 60 mg/kg endotoxin followed by 2 injections of 100 μg/Tβ4 (immediately following and 2 hours post administration of endotoxin).
4. […]

IL-1α = IL-1α serum levels after lethal endotoxin dose; type: in vivo, Swiss-Webster mice
Text: (§1) Using the same methods and materials as in examples 1-3, the effect which Tβ4 has on blood levels of IL-1α, TNF-α, PAG, Txβ2 and 6-keto-PGF1 α, which are pathological mediators of endotoxin induced lethality, was studied.

PAF = PAF blood levels (plasma, serum) after lethal endotoxin dose; type: in vivo, Swiss-Webster mice; conditions: after a lethal dose of endotoxin
Text: as §1

Txβ2 = Txβ2 plasma levels after lethal endotoxin dose; type: in vivo, Swiss-Webster mice
Text: as §1

6-keto-PGF1α = 6-keto-PGF1α plasma levels after lethal endotoxin dose; type: in vivo, Swiss-Webster mice; conditions: after a lethal dose of endotoxin
Text: as §1

TNF-α = TNF-α serum levels after lethal endotoxin dose; type: in vivo, Swiss-Webster mice
Text: as §1

[1] = after a lethal dose of endotoxin
[2] = endotoxin 60 mg/kg + Tβ4 100 μg administered simultaneously, 1 hr
[3] = endotoxin 60 mg/kg + Tβ4 100 μg administered simultaneously, 3 hr

## Thymosin β4 [Tβ4]
Lethal endotoxin shock; 10 μg Tβ4
  activity on endotoxin lethality: sometimes shown positive activity
Lethal endotoxin shock; Example 1, endotoxin 60 mg/kg i.p.
  protection against lethal endotoxin shock: protected against lethal endotoxin shock
Lethal endotoxin shock; Example 1, endotoxin 60 mg/kg i.p., Tβ4 5 minutes and 2 to 24 hours post endotoxin, survival recorded for 7 days
  survival rate: ≤ 100%
Lethal endotoxin shock; Example 2, endotoxin 60 mg/kg, Tβ4 administered 3 times post endotoxin
  survival rate: 100%
Lethal endotoxin shock; Table I, endotoxin 60 mg/kg + Tβ4 100 μg 1x (5 min post endotoxin), 24 hrs, 7 mice at 0 hrs
  Survival (No. mice alive): 4
Lethal endotoxin shock; Table I, endotoxin 60 mg/kg + Tβ4 100 μg 2x (immediately and 2 hours post endotoxin), 24 hrs, 7 mice at 0 hrs
  Survival (No. mice alive): 4
Lethal endotoxin shock; Table I, endotoxin 60 mg/kg + Tβ4 100 μg 3x (immediately, 2 and 4 hours post endotoxin), 24 hrs, 7 mice at 0 hrs
  Survival (No. mice alive): 7
Lethal endotoxin shock; Table II, Tβ4 10 μg 3x immediately following, 2 and 4 hrs after endotoxin, 48 hrs, 8 mice at 0 hrs
  Survival (No. mice alive): 6
Lethal endotoxin shock; Table II, Tβ4 10 μg 3x immediately following, 2 and 4 hrs after endotoxin, 72 hrs, 8 mice at 0 hrs
  Survival (No. mice alive): 6
Lethal endotoxin shock; Table II, Tβ4 10 μg 3x immediately following, 2 and 4 hrs after endotoxin, 96 hrs, 8 mice at 0 hrs
  Survival (No. mice alive): 6
Lethal endotoxin shock; Table II, Tβ4 10 μg 3x immediately following, 2 and 4 hrs after endotoxin, 120 hrs, 8 mice at 0 hrs
  Survival (No. mice alive): 6
Lethal endotoxin shock; Table II, Tβ4 100 μg 3x at 2, 4 and 6 hrs after endotoxin, 48 hrs, 8 mice at 0 hrs
  Survival (No. mice alive): 4
Lethal endotoxin shock; Table II, Tβ4 100 μg 3x at 2, 4 and 6 hrs after endotoxin, 72 hrs, 8 mice at 0 hrs
  Survival (No. mice alive): 4
Lethal endotoxin shock; Table II, Tβ4 100 μg 3x at 2, 4 and 6 hrs after endotoxin, 96 hrs, 8 mice at 0 hrs
  Survival (No. mice alive): 4
Lethal endotoxin shock; Table II, Tβ4 100 μg 3x at 2, 4 and 6 hrs after endotoxin, 120 hrs, 8 mice at 0 hrs
  Survival (No. mice alive): 4
Lethal endotoxin shock; Table II, Tβ4 100 μg 3x immediately following, 2 and 4 hrs after endotoxin, 48 hrs, 8 mice at 0 hrs
  Survival (No. mice alive): 8
Lethal endotoxin shock; Table II, Tβ4 100 μg 3x immediately following, 2 and 4 hrs after endotoxin, 72 hrs, 8 mice at 0 hrs
  Survival (No. mice alive): 8
Lethal endotoxin shock; Table II, Tβ4 100 μg 3x immediately following, 2 and 4 hrs after endotoxin, 96 hrs, 8 mice at 0 hrs
  Survival (No. mice alive): 8
Lethal endotoxin shock; Table II, Tβ4 100 μg 3x immediately following, 2 and 4 hrs after endotoxin, 120 hrs, 8 mice at 0 hrs
  Survival (No. mice alive): 8
Lethal endotoxin shock; Table II, endotoxin 60 mg/kg + Tβ4 10 μg 3x immediately following, 2 and 4 hrs after endotoxin, 24 hrs, 8 mice at 0 hrs
  Survival (No. mice alive): 8
Lethal endotoxin shock; Table II, endotoxin 60 mg/kg + Tβ4 100 μg 3x at 2, 4 and 6 hrs after endotoxin, 24 hrs, 8 mice at 0 hrs
  Survival (No. mice alive): 7
Lethal endotoxin shock; Table II, endotoxin 60 mg/kg + Tβ4 100 μg 3x immediately following, 2 and 4 hrs after endotoxin, 24 hrs, 8 mice at 0 hrs
  Survival (No. mice alive): 8
Lethal endotoxin shock; Table III, Tβ4 10 μg 3x i.p., 48 hrs, 10 mice at 0 hrs
  Survival (No. mice alive): 3
Lethal endotoxin shock; Table III, Tβ4 10 μg 3x i.p., 72 hrs, 10 mice at 0 hrs
  Survival (No. mice alive): 3
Lethal endotoxin shock; Table III, Tβ4 10 μg 3x i.p., 96 hrs, 10 mice at 0 hrs
  Survival (No. mice alive): 3
Lethal endotoxin shock; Table III, Tβ4 10 μg 3x i.p., 5 days, 10 mice at 0 hrs
  Survival (No. mice alive): 3
Lethal endotoxin shock; Table III, Tβ4 10 μg 3x i.p., 6 days, 10 mice at 0 hrs
  Survival (No. mice alive): 3
Lethal endotoxin shock; Table III, Tβ4 20 μg 3x i.p., 48 hrs, 10 mice at 0 hrs
  Survival (No. mice alive): 4
Lethal endotoxin shock; Table III, Tβ4 20 μg 3x i.p., 72 hrs, 10 mice at 0 hrs
  Survival (No. mice alive): 4
Lethal endotoxin shock; Table III, Tβ4 20 μg 3x i.p., 96 hrs, 10 mice at 0 hrs
  Survival (No. mice alive): 3
Lethal endotoxin shock; Table III, Tβ4 20 μg 3x i.p., 5 days, 10 mice at 0 hrs
  Survival (No. mice alive): 3
Lethal endotoxin shock; Table III, Tβ4 20 μg 3x i.p., 6 days, 10 mice at 0 hrs
  Survival (No. mice alive): 3
Lethal endotoxin shock; Table III, Tβ4 50 μg 3x i.p., 48 hrs, 10 mice at 0 hrs
  Survival (No. mice alive): 7
Lethal endotoxin shock; Table III, Tβ4 50 μg 3x i.p., 72 hrs, 10 mice at 0 hrs
  Survival (No. mice alive): 7
Lethal endotoxin shock; Table III, Tβ4 50 μg 3x i.p., 96 hrs, 10 mice at 0 hrs
  Survival (No. mice alive): 7
Lethal endotoxin shock; Table III, Tβ4 50 μg 3x i.p., 5 days, 10 mice at 0 hrs
  Survival (No. mice alive): 7
Lethal endotoxin shock; Table III, Tβ4 50 μg 3x i.p., 6 days, 10 mice at 0 hrs
  Survival (No. mice alive): 7
Lethal endotoxin shock; Table III, endotoxin 60 mg/kg + Tβ4 10 μg 3x i.p. immediately following, 2 and 4 hrs after endotoxin, 24 hrs, 10 mice at 0 hrs
  Survival (No. mice alive): 3
Lethal endotoxin shock; Table III, endotoxin 60 mg/kg + Tβ4 20 μg 3x i.p. immediately following, 2 and 4 hrs after endotoxin, 24 hrs, 10 mice at 0 hrs
  Survival (No. mice alive): 5
Lethal endotoxin shock; Table III, endotoxin 60 mg/kg + Tβ4 50 μg 3x i.p. immediately following, 2 and 4 hrs after endotoxin, 24 hrs, 10 mice at 0 hrs
  Survival (No. mice alive): 9
Lethal endotoxin shock; Tβ4 20 μg administered three times
  survival of mice treated with endotoxin: partially increased the survival
Lethal endotoxin shock; Tβ4 50 μg administered three times
  survival of mice treated with endotoxin: partially increased the survival
Lethal endotoxin shock; Tβ4 given immediately following, 2 and 4 hours after endotoxin treatment
  effect on endotoxin toxicity: protective effect
IL-1α; [1]
  IL-1α (serum levels): decreased
IL-1α; [2]
  IL-1α (serum levels): 147,5 ± 15,1 pg/ml
IL-1α; [3]
  IL-1α (serum levels): 207,5 ± 19,3 pg/ml
PAF
  PAF plasma levels: decreased
Txβ2; [1]
  Txβ2 (plasma levels): decreased
Txβ2; endotoxin 60 mg/kg + Tβ4 100 μg administered simultaneously, 0.5 hr
  Txβ2 (plasma levels): 209 ± 9,5 pg/ml
Txβ2; [2]
  Txβ2 (plasma levels): 607 ± 53 pg/mL
Txβ2; endotoxin 60 mg/kg + Tβ4 100 μg administered simultaneously, 2 hr
  Txβ2 (plasma levels): 196 ± 18 pg/mL
Txβ2; [3]
  Txβ2 (plasma levels): 112 ± 9 pg/mL
6-keto-PGF1α
  6-keto-PGF1 α plasma levels: decreased
TNF-α; [1]
  TNF-α (serum levels): decreased
TNF-α; endotoxin 60 mg/kg + Tβ4 100 μg administered immediately after endotoxin, 1 hr
  TNF-α (serum levels): 807 pg/mL
TNF-α; endotoxin 60 mg/kg + Tβ4 100 μg administered immediately after endotoxin, 3 hr
  TNF-α (serum levels): 591 pg/mL
TNF-α; endotoxin 60 mg/kg + Tβ4 100 μg administered immediately after endotoxin, 5 hr
  TNF-α (serum levels): 496 pg/mL

Reference: US5593964A, “Method of treating septic shock by preventing actin polymerization” (The George Washington University Medical Center, priority 1994, dated 1997)
